Earlier results on 1 molecule are cited in patent US5215744A, “Methods for the treatment of tumors” (Boehringer Ingelheim GmbH, priority 1987, dated 1993).

In series [1] the test system is human promyelocytic leukemic cell line. The note with it: cited from earlier work.
Series [2] concerns cAMP. To be noted: cited from earlier work.
Series [3] has as its system neoplastic cells. To be noted: cited from earlier work.
Series [4] deals with interferon antitumor / growth inhibitory effect. The note with it: cited from earlier work.
In series [5] the test system is PDE. To be noted: cited from earlier work.
Series [6] deals with antimitotic effect of interferon and its natural killer cell activating activity. To be noted: with interferon; cited from earlier work.
The subject of series [7] is HM-Kim mammary carcinoma. To be noted: rat, in vivo; cited from earlier work.
For series [8], the system named is C1300 neuroblastoma. The note with it: mouse, in vivo; cited from earlier work.
The subject of series [9] is syngeneic Wilms Tumor (nephroblastoma). The note with it: rat, in vivo; cited from earlier work.

Regarding `OCCN(CCO)c1nc(N2CCCCC2)c2nc(N(CCO)CCO)ncc2n1` [mopidamole, 2,6-bis-(diethanolamino)-4-piperidino-pyrimido[5,4-d]pyrimidine], in [1], the “reverse transformation of malignant cells” value is “promotes a reverse transformation of the malignant cells to normal”. In addition, the cAMP levels result in series [2] is given as “increase cAMP levels”. For the same molecule, in [3], the 3H-thymidine incorporation result is given as “inhibition of 3H-thymidine incorporation into neoplastic cells”. The mitotic rate result in series [3] was “direct inhibition of the mitotic rate”. Further, in series [4] (Ambrus et al. 1983), the synergism with interferon entry is listed as “no synergism was seen”. Also, the “synergism with α and γ interferon” value in series [4] (Wolf et al.) is listed as “no synergistic inhibitory effect”. In [4] (tissue culture), the “effect on antitumor effect of leukocyte and fibroblastic interferon” value was “potentiates the antitumor effect of leukocyte and fibroblastic interferon in tissue culture”. In addition, the “effect on growth inhibition by human fibroblastic β-interferon” value in series [4] (with β-interferon) was “potentiates the growth inhibitory effect of human fibroblastic β-interferon”. Moreover, the “PDE induced decomposition of cAMP” value in series [5] is “inhibition of PDE induced decomposition of cAMP”. Further, the “potentiation of interferon antimitotic effect and NK cell activating activity” value in series [6] was “potentiates the antimitotic effect of interferon and its natural killer cell activating activity”. For the same molecule, the spontaneous lung metastases entry in series [7], in series [8] and in [9] was “diminish significantly spontaneous lung metastases” throughout.
